Experimental data as given in patent publication US9114149B2, “[CU(thp)4]n[X]-n compounds for the treatment of a broad range of human solid tumors, including refractory tumors” (Universita Degli Studi Di Padova, priority 2011, dated 2015).

Tests used:
HCT-116 = test: MTT cytotoxicity, HCT-116 (colon); type: cell-based, human; settings: MTT test, 72 hrs
Text: (§1) The in vitro antitumor activity of CP had been deeply evaluated in several human cancer cell lines by in vitro cytotoxicity assays. CP cytotoxicity has been detected in a large panel of human cell lines derived from a wide variety of solid tumors, including refractory tumors. In Table 1, the cytotoxicity parameters IC50 (that is the median growth inhibitory concentrations calculated from dose-survival curves via MTT test) are tabulated.
(§2) Cell lines representative of lung (H157, U1810, U1285, Calu-1), pancreas (MIA PaCa-2, BxPC-3, AsPC-1, Capan-1), liver (Huh-7, Hep 3B, SK-Hep-1), oesophagus (OE33, OE21), oesophagus/gastric cardia (OE19), stomach (BGC-823, AGS), colon (HCT-116, T84, COLO 205), breast (MDA-MB-231, SK-BR-3), cervix (CaSki, C-33 A) ovarian (A2780, SK-OV-3, IGROV1), prostate (LnCaP, PC-3) cancers along with melanoma (MEWO, G361, C-32), neuroblastoma (SH-SY5Y, SK-N-AS, IMR-32) and osteosarcoma (U-2 OS, MG-63) have been treated with increasing concentration of CP for 72 hrs.

[1] = test system: human colon adenocarcinoma cells sensitive (HCT-116); test: Cross resistance MTT test, HCT-116 (OXP sensitive); type: cell-based; settings: 72 h, probit analysis
MIA PaCa-2 = test: MTT cytotoxicity, MIA PaCa-2 (pancreas); type: cell-based, human; settings: MTT test, 72 hrs
Text: as §1, §2

T84 = test: MTT cytotoxicity, T84 (colon); type: cell-based, human; settings: MTT test, 72 hrs
Text: as §1, §2

Capan-1 = test: MTT cytotoxicity, Capan-1 (pancreas); type: cell-based, human; settings: MTT test, 72 hrs
Text: as §1, §2

PC-3 = test: MTT cytotoxicity, PC-3 (prostate); type: cell-based, human; settings: MTT test, 72 hrs
Text: as §1, §2

COLO 205 = test: MTT cytotoxicity, COLO 205 (colon); type: cell-based, human; settings: MTT test, 72 hrs
Text: as §1, §2

[2] = test system: human colon adenocarcinoma cells resistant (HCT-116 OXP) to OXP
U-2 OS = test: MTT cytotoxicity, U-2 OS (bone); type: cell-based, human; settings: MTT test, 72 hrs
Text: as §1, §2

A2780 = test: MTT cytotoxicity, A2780 (ovary); type: cell-based, human; settings: MTT test, 72 hrs
Text: as §1, §2

AGS = test: MTT cytotoxicity, AGS (stomach); type: cell-based, human; settings: MTT test, 72 hrs
Text: as §1, §2

MEWO = test: MTT cytotoxicity, MEWO (skin); type: cell-based, human; settings: MTT test, 72 hrs
Text: as §1, §2

CaSki = test: MTT cytotoxicity, CaSki (cervix); type: cell-based, human; settings: MTT test, 72 hrs
Text: as §1, §2

C-32 = test: MTT cytotoxicity, C-32 (skin); type: cell-based, human; settings: MTT test, 72 hrs
Text: as §1, §2

Hep 3B = test: MTT cytotoxicity, Hep 3B (liver); type: cell-based, human; settings: MTT test, 72 hrs
Text: as §1, §2

G361 = test: MTT cytotoxicity, G361 (skin); type: cell-based, human; settings: MTT test, 72 hrs
Text: as §1, §2

H157 = test: MTT cytotoxicity, H157 (lung); type: cell-based, human; settings: MTT test, 72 hrs
Text: as §1, §2

MDA-MB-231 = test: MTT cytotoxicity, MDA-MB-231 (breast); type: cell-based, human; settings: MTT test, 72 hrs
Text: as §1, §2

[3] = test system: human lung (MRC-5) fibroblasts; test: Cytotoxicity towards human non-tumor cells, MRC-5; type: cell-based; settings: MRC-5 human lung fibroblasts (non-tumor); MTT test, 72 hrs
SK-OV-3 = test: MTT cytotoxicity, SK-OV-3 (ovary); type: cell-based, human; settings: MTT test, 72 hrs
Text: as §1, §2

Calu-1 = test: MTT cytotoxicity, Calu-1 (lung); type: cell-based, human; settings: MTT test, 72 hrs
Text: as §1, §2

SK-BR-3 = test: MTT cytotoxicity, SK-BR-3 (breast); type: cell-based, human; settings: MTT test, 72 hrs
Text: as §1, §2

SK-Hep-1 = test: MTT cytotoxicity, SK-Hep-1 (liver); type: cell-based, human; settings: MTT test, 72 hrs
Text: as §1, §2

Huh-7 = test: MTT cytotoxicity, Huh-7 (liver); type: cell-based, human; settings: MTT test, 72 hrs
Text: as §1, §2

AsPC-1 = test: MTT cytotoxicity, AsPC-1 (pancreas); type: cell-based, human; settings: MTT test, 72 hrs
Text: as §1, §2

BxPC-3 = test: MTT cytotoxicity, BxPC-3 (pancreas); type: cell-based, human; settings: MTT test, 72 hrs
Text: as §1, §2

IGROV1 = test: MTT cytotoxicity, IGROV1 (ovary); type: cell-based, human; settings: MTT test, 72 hrs
Text: as §1, §2

[4] = test system: human foreskin (HFFF2) fibroblasts; test: Cytotoxicity towards human non-tumor cells, HFFF2; type: cell-based; settings: MTT test, 72 hrs
OE19 = test: MTT cytotoxicity, OE19 (oesophagus/gastric cardia); type: cell-based, human; settings: MTT test, 72 hrs
Text: as §1, §2

[5] = test system: CDDP sensitive and resistant human cancer cell lines; settings: also CDDP resistant cell lines; cited from earlier work

O=C1[O][Pt]2([NH][C@@H]3CCCC[C@H]3[NH]2)[O]C1=O [OXP, oxaliplatin]
IC50 (HCT-116): 0.76 ± 0.58 µM
IC50 [1]: 1.2 ± 0.1 µM
IC50 (MIA PaCa-2): 16.8 ± 1.89 µM
IC50 (T84): 0.33 ± 0.09 µM
IC50 (Capan-1): 3.17 ± 0.97 µM
IC50 (PC-3): 5.23 ± 1.62 µM
IC50 (COLO 205): 21.1 ± 2.66 µM
IC50 ([2]; HCT-116 OXP (OXP resistant), MTT test, 72 h, probit analysis): 23.3 ± 1 µM
R.F. (Resistant factor) ([2]; IC50 resistant/parent line: HCT-116 OXP / HCT-116): 19.4
IC50 (U-2 OS): 0.72 ± 0.24 µM
IC50 (A2780): 0.55 ± 0.22 µM
IC50 (AGS): 5.32 ± 1.63 µM
IC50 (MEWO): 6.43 ± 1.54 µM
IC50 (CaSki): 26.1 ± 3.01 µM
IC50 (C-32): 1.12 ± 0.42 µM
IC50 (Hep 3B): 4.32 ± 1.33 µM
IC50 (G361): 1.14 ± 0.31 µM
IC50 (H157): 25.3 ± 0.52 µM
IC50 (MDA-MB-231): 4.35 ± 1.07 µM
IC50 [3]: 23.1 ± 1.25 µM
IC50 (SK-OV-3): 1.43 ± 1.03 µM
IC50 (Calu-1): 4.23 ± 1.53 µM
IC50 (SK-BR-3): 8.98 ± 2.64 µM
IC50 (SK-Hep-1): 17.8 ± 2.63 µM
IC50 (Huh-7): 1.12 ± 1.05 µM
IC50 (AsPC-1): 23.2 ± 2.64 µM
IC50 (BxPC-3): 4.15 ± 1.06 µM
IC50 (IGROV1): 2.56 ± 2.14 µM
IC50 [4]: 25.5 ± 1.65 µM
IC50 (OE19): 8.76 ± 1.51 µM

Cc1cc(C)n(C(C(=O)[O][Cu]([PH](CO)(CO)CO)[PH](CO)(CO)CO)n2nc(C)cc2C)n1 [[HC(CO2)(pz^Me2)2]Cu[P(CH2OH)3]2]
antitumor activity in vitro [5]: significant antitumor activity in vitro
